From publication PMC5218480 (PLoS ONE, 2017)

System: MV-4-11 cells
Test: Gene expression microarray analysis (Affymetrix PrimeView) and GSEA
Format: cell-based, human
Set-up: RFU PODN (11730768_x_at) / Fold change /veh PODN (11730768_x_at) / RFU LINC00158 (11744669_a_at) / Fold change /veh LINC00158 (11744669_a_at) / RFU DUSP10 (11751237_a_at) / Fold change /veh DUSP10 (11751237_a_at) / RFU ID3 (11757404_x_at) / Fold change /veh ID3 (11757404_x_at) / RFU PLEKHG5 (11737974_s_at) / Fold change /veh PLEKHG5 (11737974_s_at) / RFU LRRC4B (11730491_at) / Fold change /veh LRRC4B (11730491_at) / RFU GIMAP4 (11747438_a_at) / Fold change /veh GIMAP4 (11747438_a_at) / RFU KRT8 (11758183_x_at) / Fold change /veh KRT8 (11758183_x_at) / RFU CNN1 (11734310_a_at) / Fold change /veh CNN1 (11734310_a_at) / RFU VPS37D (11726825_at) / Fold change /veh VPS37D (11726825_at) / RFU C10orf10 (11716522_x_at) / Fold change /veh C10orf10 (11716522_x_at) / RFU KIR2DL2 /// KIR2DL4 /// KIR2DL5A /// KIR2DL5B /// KIR2DS1 /// KIR2DS2 /// KIR2DS3 /// KIR2DS4 /// KIR3DL3 /// KIR3DL3 /// KIR3DS1 (11738374_at) / Fold change /veh KIR2DL2 /// KIR2DL4 /// KIR2DL5A /// KIR2DL5B /// KIR2DS1 /// KIR2DS2 /// KIR2DS3 /// KIR2DS4 /// KIR3DL3 /// KIR3DL3 /// KIR3DS1 (11738374_at) / RFU C1QL1 (11718748_at) / Fold change /veh C1QL1 (11718748_at) / RFU TMPRSS4 (11747572_a_at) / Fold change /veh TMPRSS4 (11747572_a_at) / RFU HAMP (11756126_x_at) / Fold change /veh HAMP (11756126_x_at) / RFU RNFT2 (11725882_a_at) / Fold change /veh RNFT2 (11725882_a_at) / RFU NR4A2 (11747474_a_at) / Fold change /veh NR4A2 (11747474_a_at) / RFU ABCC12 (11746883_a_at) / Fold change /veh ABCC12 (11746883_a_at) / RFU TMEM136 (11760407_x_at) / Fold change /veh TMEM136 (11760407_x_at) / RFU CLDN22 /// WWC2 (11732394_at) / Fold change /veh CLDN22 /// WWC2 (11732394_at) / RFU HLA-DPB1 (11760878_x_at) / Fold change /veh HLA-DPB1 (11760878_x_at) / RFU SPINT1 (11716480_a_at) / Fold change /veh SPINT1 (11716480_a_at) / RFU GAP43 (11754022_s_at) / Fold change /veh GAP43 (11754022_s_at) / RFU A4GNT (11735810_at) / Fold change /veh A4GNT (11735810_at) / RFU PRB3 (11715151_x_at) / Fold change /veh PRB3 (11715151_x_at) / RFU TUBB4B (11761932_at) / Fold change /veh TUBB4B (11761932_at) / RFU CAPN14 (11732068_a_at) / Fold change /veh CAPN14 (11732068_a_at) / RFU TMCC2 (11721928_a_at) / Fold change /veh TMCC2 (11721928_a_at) / RFU IRGQ (11745062_a_at) / Fold change /veh IRGQ (11745062_a_at) / RFU FAM174B (11720279_a_at) / Fold change /veh FAM174B (11720279_a_at) / RFU TMPRSS4 (11748680_a_at) / Fold change /veh TMPRSS4 (11748680_a_at) / RFU FAM212B (11763350_a_at) / Fold change /veh FAM212B (11763350_a_at) / RFU PLEKHG5 (11743358_a_at) / Fold change /veh PLEKHG5 (11743358_a_at) / RFU ZSCAN30 (11745921_a_at) / Fold change /veh ZSCAN30 (11745921_a_at) / RFU CMKLR1 (11741424_a_at) / Fold change /veh CMKLR1 (11741424_a_at) / RFU LOC101060620 /// MAPK8IP1 (11723275_at) / Fold change /veh LOC101060620 /// MAPK8IP1 (11723275_at) / RFU SPTSSB (11747773_x_at) / Fold change /veh SPTSSB (11747773_x_at) / RFU PRSS12 (11739890_at) / Fold change /veh PRSS12 (11739890_at) / RFU BIN1 (11741810_x_at) / Fold change /veh BIN1 (11741810_x_at) / RFU WNT11 (11732464_a_at) / Fold change /veh WNT11 (11732464_a_at) / RFU C10orf10 (11716521_a_at) / Fold change /veh C10orf10 (11716521_a_at) / RFU C5orf56 (11738089_at) / Fold change /veh C5orf56 (11738089_at) / RFU CYB561 (11721691_x_at) / Fold change /veh CYB561 (11721691_x_at) / RFU ANKRD19P (11752326_a_at) / Fold change /veh ANKRD19P (11752326_a_at) / RFU OR2T12 /// OR2T33 /// OR2T8 (11738714_s_at) / Fold change /veh OR2T12 /// OR2T33 /// OR2T8 (11738714_s_at) / RFU VCAN (11748164_a_at) / Fold change /veh VCAN (11748164_a_at) / RFU JSRP1 (11732532_at) / Fold change /veh JSRP1 (11732532_at) / RFU KRTAP10-11 (11738290_x_at) / Fold change /veh KRTAP10-11 (11738290_x_at) / RFU MYO3A (11730013_a_at) / Fold change /veh MYO3A (11730013_a_at) / RFU EBF3 (11725865_a_at) / Fold change /veh EBF3 (11725865_a_at) / RFU CAMK2N1 (11719241_x_at) / Fold change /veh CAMK2N1 (11719241_x_at) / RFU C5orf56 (11738088_a_at) / Fold change /veh C5orf56 (11738088_a_at) / RFU OLFML3 (11715873_a_at) / Fold change /veh OLFML3 (11715873_a_at) / RFU LOC100653217 /// NTM (11731650_a_at) / Fold change /veh LOC100653217 /// NTM (11731650_a_at) / RFU MAPK11 (11762145_a_at) / Fold change /veh MAPK11 (11762145_a_at) / RFU FIZ1 (11724087_x_at) / Fold change /veh FIZ1 (11724087_x_at) / RFU OASL (11726364_x_at) / Fold change /veh OASL (11726364_x_at) / RFU SOX15 (11748057_x_at) / Fold change /veh SOX15 (11748057_x_at) / RFU CD79A (11719716_a_at) / Fold change /veh CD79A (11719716_a_at) / RFU HIST1H1D (11736915_at) / Fold change /veh HIST1H1D (11736915_at) / RFU CASKIN2 (11723855_a_at) / Fold change /veh CASKIN2 (11723855_a_at) / RFU LOC730098 (11760151_x_at) / Fold change /veh LOC730098 (11760151_x_at) / RFU OR4N2 (11742367_at) / Fold change /veh OR4N2 (11742367_at) / RFU PRRT2 (11749266_a_at) / Fold change /veh PRRT2 (11749266_a_at) / RFU SNX32 (11753110_a_at) / Fold change /veh SNX32 (11753110_a_at) / RFU CDHR5 (11726645_a_at) / Fold change /veh CDHR5 (11726645_a_at) / RFU RCAN1 (11760418_a_at) / Fold change /veh RCAN1 (11760418_a_at) / RFU FAM167A (11723789_a_at) / Fold change /veh FAM167A (11723789_a_at) / RFU FAM26E (11764081_at) / Fold change /veh FAM26E (11764081_at) / RFU ISYNA1 (11749810_s_at) / Fold change /veh ISYNA1 (11749810_s_at) / RFU ACY1 (11761880_at) / Fold change /veh ACY1 (11761880_at) / RFU 11764098_at / Fold change /veh 11764098_at / RFU SAMD14 (11745864_x_at) / Fold change /veh SAMD14 (11745864_x_at) / RFU NPB (11741838_a_at) / Fold change /veh NPB (11741838_a_at) / RFU TMPRSS6 (11731388_a_at) / Fold change /veh TMPRSS6 (11731388_a_at) / RFU KRTAP10-2 (11738614_at) / Fold change /veh KRTAP10-2 (11738614_at) / RFU ARHGAP8 /// PRR5-ARHGAP8 (11727945_x_at) / Fold change /veh ARHGAP8 /// PRR5-ARHGAP8 (11727945_x_at) / RFU KRTAP5-7 /// NADSYN1 (11734609_at) / Fold change /veh KRTAP5-7 /// NADSYN1 (11734609_at) / RFU RASL12 (11751679_a_at) / Fold change /veh RASL12 (11751679_a_at) / RFU CDKN2B (11736163_a_at) / Fold change /veh CDKN2B (11736163_a_at) / RFU PRF1 (11729649_at) / Fold change /veh PRF1 (11729649_at) / RFU, ZNF638 /// ZNF638-IT1 / Fold change vs veh, ZNF638 /// ZNF638-IT1 / RFU, PANK3 / Fold change vs veh, PANK3 / RFU, SH3YL1 / Fold change vs veh, SH3YL1 / RFU, ZEB2 / Fold change vs veh, ZEB2 / RFU, NRIP1 / Fold change vs veh, NRIP1 / RFU, PTTG1IP / Fold change vs veh, PTTG1IP / RFU, CAPN2 / Fold change vs veh, CAPN2 / RFU, MED14 / Fold change vs veh, MED14 / RFU, SNORA58 / Fold change vs veh, SNORA58 / RFU, C1orf63 / Fold change vs veh, C1orf63 / RFU, LRRFIP1 / Fold change vs veh, LRRFIP1 / RFU, NDUFAF7 / Fold change vs veh, NDUFAF7 / RFU, SLC12A2 / Fold change vs veh, SLC12A2 / RFU, IBTK / Fold change vs veh, IBTK / RFU, ESF1 / Fold change vs veh, ESF1 / Fold change vs veh, TMEM50B / RFU, TAOK1 / Fold change vs veh, TAOK1 / RFU, ACBD3 / Fold change vs veh, ACBD3 / RFU, TMA16 / Fold change vs veh, TMA16 / RFU, RWDD3 / Fold change vs veh, RWDD3 / RFU, BCAT1 / Fold change vs veh, BCAT1 / RFU, EDEM3 / Fold change vs veh, EDEM3 / RFU, TMEM33 / Fold change vs veh, TMEM33 / RFU, WDR75 / Fold change vs veh, WDR75 / RFU, AHCTF1 / Fold change vs veh, AHCTF1 / RFU, TFRC / Fold change vs veh, TFRC / RFU, ZDHHC17 / Fold change vs veh, ZDHHC17 / RFU, NOM1 / Fold change vs veh, NOM1 / RFU, ARL8B / Fold change vs veh, ARL8B / RFU, ZBTB11 / Fold change vs veh, ZBTB11 / RFU, TAMM41 / Fold change vs veh, TAMM41 / RFU, KIAA1704 /// LOC100996395 / Fold change vs veh, KIAA1704 /// LOC100996395 / RFU, ING1 / Fold change vs veh, ING1 / RFU, TRMT61B / Fold change vs veh, TRMT61B / RFU, FUBP3 / Fold change vs veh, FUBP3 / RFU, TP53 / Fold change vs veh, TP53 / RFU, TNKS2 / Fold change vs veh, TNKS2 / RFU, ZFP14 / Fold change vs veh, ZFP14 / RFU, ACTR2 / Fold change vs veh, ACTR2 / RFU, PPP3R1 / Fold change vs veh, PPP3R1 / RFU, PIK3R1 / Fold change vs veh, PIK3R1 / RFU, HNRNPA1 / Fold change vs veh, HNRNPA1 / RFU, RNF170 / Fold change vs veh, RNF170 / RFU, ZNF28 / Fold change vs veh, ZNF28 / RFU, RNGTT / Fold change vs veh, RNGTT / RFU, OGT / Fold change vs veh, OGT / RFU, BRD1 / Fold change vs veh, BRD1 / RFU, MARS / Fold change vs veh, MARS / RFU, ZNF655 / Fold change vs veh, ZNF655 / RFU, FAHD1 / Fold change vs veh, FAHD1 / RFU, BDP1 / Fold change vs veh, BDP1 / RFU, LRRCC1 / Fold change vs veh, LRRCC1 / RFU, ARID1A / Fold change vs veh, ARID1A / RFU, ZNF146 / Fold change vs veh, ZNF146 / RFU, ZNF330 / Fold change vs veh, ZNF330 / RFU, GPN3 / Fold change vs veh, GPN3 / RFU, C9orf123 / Fold change vs veh, C9orf123 / RFU, N4BP2L2 / Fold change vs veh, N4BP2L2 / RFU, ARFIP1 / Fold change vs veh, ARFIP1 / RFU, FAM179B / Fold change vs veh, FAM179B / RFU, BCL10 / Fold change vs veh, BCL10 / RFU, UHRF1BP1L / Fold change vs veh, UHRF1BP1L / RFU, BET1 / Fold change vs veh, BET1 / RFU, CNOT2 / Fold change vs veh, CNOT2 / RFU, ZNF268 / Fold change vs veh, ZNF268 / Fold change vs veh, ZNF507 / RFU, DGCR2 / Fold change vs veh, DGCR2 / RFU, WDSUB1 / Fold change vs veh, WDSUB1 / Fold change vs veh, HSP90B1 /// MIR3652 / RFU, ADSS / Fold change vs veh, ADSS / RFU, GK / Fold change vs veh, GK / RFU, ZNF148 / Fold change vs veh, ZNF148 / RFU, TAF9 / Fold change vs veh, TAF9 / RFU, SLC1A5 / Fold change vs veh, SLC1A5 / RFU, SLMO2 / Fold change vs veh, SLMO2 / RFU, ABCC4 / Fold change vs veh, ABCC4 / RFU, LOC101060439 /// RAP1B / Fold change vs veh, LOC101060439 /// RAP1B / RFU, RFX7 / Fold change vs veh, RFX7 / RFU, GTPBP10 / Fold change vs veh, GTPBP10 / RFU, CNEP1R1 / Fold change vs veh, CNEP1R1 / RFU, BIVM-ERCC5 /// ERCC5 / Fold change vs veh, BIVM-ERCC5 /// ERCC5 / RFU, ILF3 / Fold change vs veh, ILF3 / RFU 11762660_at / Fold change /veh 11762660_at / RFU VCAN (11757783_s_at) / Fold change /veh VCAN (11757783_s_at) / RFU DDX43 (11728927_at) / Fold change /veh DDX43 (11728927_at) / RFU KRT8 (11758188_x_at) / Fold change /veh KRT8 (11758188_x_at) / RFU NKD1 (11759106_at) / Fold change /veh NKD1 (11759106_at) / RFU SRD5A1 (11742802_a_at) / Fold change /veh SRD5A1 (11742802_a_at) / RFU TPSAB1 /// TPSB2 (11721975_s_at) / Fold change /veh TPSAB1 /// TPSB2 (11721975_s_at) / RFU GSTM3 (11746129_a_at) / Fold change /veh GSTM3 (11746129_a_at) / RFU IL23R (11737362_x_at) / Fold change /veh IL23R (11737362_x_at) / RFU TMEM51 (11727254_a_at) / Fold change /veh TMEM51 (11727254_a_at) / RFU PIWIL2 (11732686_x_at) / Fold change /veh PIWIL2 (11732686_x_at) / RFU ORM1 (11744905_x_at) / Fold change /veh ORM1 (11744905_x_at) / RFU CCDC152 (11743942_at) / Fold change /veh CCDC152 (11743942_at) / RFU ECM1 (11717891_a_at) / Fold change /veh ECM1 (11717891_a_at) / RFU IL23R (11748794_a_at) / Fold change /veh IL23R (11748794_a_at) / RFU TNFAIP8L3 (11732012_x_at) / Fold change /veh TNFAIP8L3 (11732012_x_at) / RFU MBOAT4 (11741988_at) / Fold change /veh MBOAT4 (11741988_at) / RFU 11764193_at / Fold change /veh 11764193_at / RFU TMEM53 (11763286_at) / Fold change /veh TMEM53 (11763286_at) / RFU MAGEB2 (11727129_at) / Fold change /veh MAGEB2 (11727129_at) / RFU TMEM200A (11744735_a_at) / Fold change /veh TMEM200A (11744735_a_at) / RFU CCDC152 (11751479_a_at) / Fold change /veh CCDC152 (11751479_a_at) / RFU FAM211A (11726209_a_at) / Fold change /veh FAM211A (11726209_a_at) / RFU RGS16 (11746705_a_at) / Fold change /veh RGS16 (11746705_a_at) / RFU VCAN (11755009_s_at) / Fold change /veh VCAN (11755009_s_at) / RFU RHOB (11743442_s_at) / Fold change /veh RHOB (11743442_s_at) / RFU RGS16 (11720943_a_at) / Fold change /veh RGS16 (11720943_a_at) / RFU RGS16 (11720944_at) / Fold change /veh RGS16 (11720944_at) / RFU, VPS4B / Fold change vs veh, VPS4B / RFU, CREB1 / Fold change vs veh, CREB1 / RFU, DNAJC13 / Fold change vs veh, DNAJC13 / RFU, GNAQ / Fold change vs veh, GNAQ / RFU, CDK5R1 / Fold change vs veh, CDK5R1 / RFU, ZRANB3 / Fold change vs veh, ZRANB3 / RFU, CUL4A / Fold change vs veh, CUL4A / RFU, CCNY / Fold change vs veh, CCNY / RFU, UFL1 / Fold change vs veh, UFL1 / RFU, COG3 / Fold change vs veh, COG3 / RFU, DIAPH2 / Fold change vs veh, DIAPH2 / RFU, SKA2 / Fold change vs veh, SKA2 / RFU, AFF3 / Fold change vs veh, AFF3 / RFU, LMF1 / Fold change vs veh, LMF1 / RFU, IPO11 / Fold change vs veh, IPO11 / RFU, DFFB / Fold change vs veh, DFFB / RFU, FOXP1 / Fold change vs veh, FOXP1 / RFU, CARD8 / Fold change vs veh, CARD8 / RFU, STRN3 / Fold change vs veh, STRN3 / RFU, ADK / Fold change vs veh, ADK / RFU, RASSF2 / Fold change vs veh, RASSF2 / RFU, WIPF1 / Fold change vs veh, WIPF1 / RFU, LARP1B / Fold change vs veh, LARP1B / RFU, RASA1 / Fold change vs veh, RASA1 / RFU, RB1 / Fold change vs veh, RB1 / RFU, PPFIA1 / Fold change vs veh, PPFIA1 / RFU, MAT2A / Fold change vs veh, MAT2A / RFU, CCT5 / Fold change vs veh, CCT5 / RFU, WDR92 / Fold change vs veh, WDR92 / RFU, CUX1 / Fold change vs veh, CUX1 / RFU, TTC7A / Fold change vs veh, TTC7A / RFU, TMEM135 / Fold change vs veh, TMEM135 / RFU, DEPTOR / Fold change vs veh, DEPTOR / RFU, CPM / Fold change vs veh, CPM / RFU, DNAJB6 / Fold change vs veh, DNAJB6 / RFU, CACNA2D3 / Fold change vs veh, CACNA2D3 / RFU, DTX4 / Fold change vs veh, DTX4 / RFU, TFCP2 / Fold change vs veh, TFCP2 / RFU, GMCL1 /// GMCL1P1 / Fold change vs veh, GMCL1 /// GMCL1P1 / RFU, AEBP2 / Fold change vs veh, AEBP2 / RFU, SNHG1 /// SNORD22 /// SNORD25 /// SNORD26 /// SNORD27 /// SNORD28 /// SNORD29 /// SNORD31 / Fold change vs veh, SNHG1 /// SNORD22 /// SNORD25 /// SNORD26 /// SNORD27 /// SNORD28 /// SNORD29 /// SNORD31 / Fold change (Aza/veh), C12orf56 (ProbeSet 11735607_a_at) / Fold change (ACY-1035/veh), C12orf56 (ProbeSet 11735607_a_at) / Fold change (Aza/veh), FGFR1OP (ProbeSet 11751329_s_at) / Fold change (ACY-1035/veh), FGFR1OP (ProbeSet 11751329_s_at) / Fold change (Aza/veh), VPS36 (ProbeSet 11739960_a_at) / Fold change (ACY-1035/veh), VPS36 (ProbeSet 11739960_a_at) / RFU SYPL1 (11715823_x_at) / Fold change /veh SYPL1 (11715823_x_at) / RFU IGFBP7 (11715501_s_at) / Fold change /veh IGFBP7 (11715501_s_at) / RFU REEP3 (11722064_at) / Fold change /veh REEP3 (11722064_at) / RFU IGLL1 (11728026_x_at) / Fold change /veh IGLL1 (11728026_x_at): dose or concentration left out as unconfirmed
Settings: ProbeSet 11719817_x_at; LIST B

Nc1ncn([C@@H]2O[C@H](CO)[C@@H](O)[C@H]2O)c(=O)n1 [azacitidine] was tested, and the “Fold change vs veh, BET1” value was 0.89.
